From patent USRE34918E, “Azaazulene compounds which are useful as antiallergic and antiinflammatory agents” (Kaken Pharmaceutical Co., Ltd., priority 1988, dated 1995)
≈ marks a conversion by molar mass, not a printed value. Where “and” joins values, the source holds several entries; their conditions need not be identical. Identical values can stand only once.

Assays:
5-lipoxygenase = molecular target: T1, 5-lipoxygenase (Cavia porcellus, UniProt A0A286X958); assay: 5-lipoxygenase inhibiting activity in guinea pig; format: biochemical; conditions: read-out: Inhibition rate against 5-lipoxygenase activity
T1 construct: 5-lipoxygenase was prepared with polymorphonuclear leukocyte obtained from peritoneal cavity; endogenous in cells; host or cells: guinea pig peritoneal polymorphonuclear leukocytes (casein-elicited)
T1 sequence (A0A286X958 1-674): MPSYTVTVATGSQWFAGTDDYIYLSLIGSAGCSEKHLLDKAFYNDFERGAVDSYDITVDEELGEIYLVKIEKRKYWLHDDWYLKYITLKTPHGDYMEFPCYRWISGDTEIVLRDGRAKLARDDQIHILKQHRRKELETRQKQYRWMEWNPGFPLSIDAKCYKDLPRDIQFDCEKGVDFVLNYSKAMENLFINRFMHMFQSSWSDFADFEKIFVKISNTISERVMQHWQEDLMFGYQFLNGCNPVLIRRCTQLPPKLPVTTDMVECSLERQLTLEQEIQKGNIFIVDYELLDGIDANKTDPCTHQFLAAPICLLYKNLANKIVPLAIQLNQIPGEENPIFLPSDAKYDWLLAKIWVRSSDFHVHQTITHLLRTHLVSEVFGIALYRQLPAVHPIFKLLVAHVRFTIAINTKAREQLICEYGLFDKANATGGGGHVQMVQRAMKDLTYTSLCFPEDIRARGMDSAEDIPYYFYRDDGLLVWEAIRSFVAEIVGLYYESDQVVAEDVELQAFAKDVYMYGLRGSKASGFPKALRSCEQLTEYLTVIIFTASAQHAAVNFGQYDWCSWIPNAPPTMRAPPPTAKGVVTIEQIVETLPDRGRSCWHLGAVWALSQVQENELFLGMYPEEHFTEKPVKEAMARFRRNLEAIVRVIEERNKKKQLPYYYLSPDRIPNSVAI
Description: The test was carried out according to the method of Ochi [cf. J. Biol. Chem., 258, 5754-5758 (1983)]. Two % casein solution in saline was injected intraperitoneally into guinea pigs in an amount of 1/10 of body weight. After 16 hours, 5-lipoxygenase was prepared with polymorphonuclear leukocyte obtained from peritoneal cavity. Test compound and 5-lipoxygenase were pre-incubated at 30° C. for 10 minutes, CaCl2 (calcium chloride) and ^14 C-arachidonic acid were added thereto, and the resulting mixture was incubated for 20 minutes. A mixture of ethyl acetate/methanol/0.2M citric acid=30/4/1 (by volume) was added thereto to stop the reaction. After centrifugation, the organic solvent layer was spotted on a plate for thin layer chromatography and developed. Effect of the test compound was determined from the amount of ^14 C-5-hydroxyeicosatetraenoic acid (hereinafter referred to as "5-HETE") formed from ^14 C-arachidonic acid. Radioactivity of 5-HETE position was measured with a liquid scintillation counter.
Inhibition rate against 5-lipoxygenase activity was calculated according to the following equation.
Inhibition rate against 5-lipoxygenase activity [formula] A: Value of radioactivity in the control group B: Value of radioactivity in the test compound group
Each test compound was used in a concentration of 10 μM.

[1] = test system: smooth musculus trachealis; assay: Relaxant activity of smooth musculus trachealis in guinea pig; design: species or system guinea pig (male Hartley); conditions: Cavia porcellus; tracheal chain strips, 37° C.; read-out: Concentration for 50% relaxation
Description: Male Hartley guinea pigs weighing 350 to 550 g were bleed to death, and immediately the tracheae were extirpated. According to the method of Takagi et al [cf. Chem. Pharm. Bull., 8, 716 (1958)], tracheal chain strips was prepared, and the sample was suspended on Magnus apparatus under addition of load of 0.5 g. The test was carried out at 37° C. of liquid temperature. After position of tonus was examined with histamine (10^-6 g/ml) and isoproterenol (10^-7 g/ml), the test compound dissolved in a mixture of dimethyl sulfoxide and physiological saline was added thereto, and the test compound was investigated with respect to the effect on smooth musculus trachealis. Theophylline was used as a positive comparative drug. The relaxation and the contraction of smooth musculus trachealis were recorded on servocorder (SR 6342: commercially available from Watanabe Instruments Corp.) by connecting Isotonic Transducer (TD-1125: commercially available from Nihon Kohden Kogyo Co., Ltd.) to a balancing box.

[2] = test system: carrageenin edema in a foot-pad of rat; assay: Effect on carrageenin edema in a foot-pad of rat; format: in vivo, rat (male Wister); conditions: 4 hours after carrageenin; for Inhibition rate against swelling: vs 0.5% CMC group
Description: The test was carried out according to the modified method on a method of Winter et al [Proc. Soc. Exp. Biol Med., 111, 544-547 (1962)]. Five male Wister rats weighing 148 to 162 g which were subjected to fasting for 24 hours were used as one group.
The test compound was suspended in 0.5% aqueous solution of CMC, and the suspension was administered orally in a amount of 50 mg/kg. After 60 minutes, 0.1 ml of 1% carrageenin solution in physiological saline was injected subcutaneously into the foot-pad of the left hind foot. Four hours after the injection of carrageenin, the volume of the foot-pad was measured by the apparatus for measurement of foot-pad volume in rat (commercially available from Ugobasile).
Swelling volume was calculated from the difference between a volume of foot-pad before inflaming the foot-pad, i.e. normal volume and that after inflaming it. Effect of a test compound was expressed as inhibition rate against swelling by calculating percentage in comparison with the 0.5% CMC administration group.
Indomethacin (commercially available from Merck Co.) was used as a positive comparative drug.

[3] = test system: histamine release from rat mast cell; assay: Inhibitory activity against histamine release from rat mast cell; format: cell-based; conditions: 10 μg/ml, read-out: Inhibitory rate against histamine release
Description: An anti-dinitrophenylated-ovalbumin (anti DNP-OVA) rat antiserum having 800 of PCA titer in homologous passive cutaneous anaphylaxis reaction in rats for 48 hours was diluted double with physiological saline, and 1 ml of diluted antiserum was injected intraperitoneally into rats to be passively sensitized. On the next day, peritoneal exudation cell (hereinafter referred to as "PEC") was collected. The collected PEC was washed with a medium containing 0.1% BSA, and 1.5×10^5 of the PEC were added to each test tube. AFter incubation at 37° C. for 10 minutes, 50 μl of test compound solution in a same medium was added thereto. After 30 seconds, 50 μl of antigen solution (DVA-OVA 100 μg/ml) was further added thereto to give the total amount of 500 μl of the reaction mixture, and histamine release reaction was induced. After 10 minutes, 1 ml of physiological saline with cooled Tris buffered solution containing 1 mM EDTA were added thereto to stop the reaction. After centrifugation, the amount of histamine in supernatant was determined by fluorescence method according to the method of Shore et al [cf. J. Pharmacol. Exp. Ther., 127, 182 (1959)]. Inhibition rate against histamine release was calculated according to the following equation.
Inhibition rate against histamine release [formula] M: Amount of histamine in supernatant under addition of antigen and non-addition of test compound
S: Amount of histamine in supernatant under addition of antigen and test compound
B: Amount of histamine in supernatant under non-addition of antigen and test compound.
The test compound was used in a concentration of 10 μg/ml.

[4] = 5 mg/kg p.o. (positive comparative drug)

Row | inhibition at 10 µM (5-lipoxygenase) [%] | EC50 [1] [µg/mL] | SMILES | Swelling volume 4 hours after inflaming, mean ± standard error ([2]; 50 mg/kg p.o.) | Inhibition rate against swelling ([2]; 50 mg/kg p.o.) [%] | inhibition at 10 µg/mL [3] [%] | Swelling volume 4 hours after inflaming, mean ± standard error [2, 4] [mL] | Inhibition rate against swelling [2, 4] [%]
1 | 41.8 | 3.4 (≈ 9.36 µM) | CC(C)c1cccc2c(-c3nnn[nH]3)c(=O)n(Cc3ccc(F)cc3)c-2c1 [Example 10, 1-(4-Fluorobenzyl)-7-iso-propyl-3-(5-tetrazolyl)-1-azaazulane-2-one] | 0.58 mL and 0.58 ± 0.036 mL | 35.6 | 99.8 |  | 
2 |  |  | COc1ccc2c(c1)c(CC(=O)O)c(C)n2C(=O)c1ccc(Cl)cc1 [Indomethacin, reference compound] |  |  |  | 0.47 ± 0.056 | 47.8
